Assay results published in US20250228239A1, “MOLECULES HAVING PESTICIDAL UTILITY, AND INTERMEDIATES, COMPOSITIONS, AND PROCESSES, RELATED THERETO” (priority 2024, published 2025).
Read-outs that look alike come from different tables or passages of the source.

Tests used:
Format in all cases: in vivo
[1] = tested on: Cabbage Looper (Trichoplusia ni, TRIPNI); experiment: Bioassays on Cabbage Looper (CL), 128-well diet tray assay; conditions: Trichoplusia ni, Cabbage Looper
Outline: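 Percent mortality, averaged across eight replicate wells, after second-instar larvae (1–5 per well) fed for five to seven days on diet dosed at 50 μg/cm^2. Compound was applied in acetone-water 90:10 and dried; trays kept vented at 25° C under 14:10 photoperiod.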

[2] = tested on: Beet Armyworm (Spodoptera exigua, LAPHEG); experiment: Bioassays on Beet Armyworm (BAW), 128-well diet tray assay; conditions: Spodoptera exigua, Beet Armyworm
Outline: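 Diet-overlay assay: 50 μg/cm^2 compound applied in 90:10 acetone-water to artificial diet, allowed to dry, then infested with 1–5 L2 larvae/well; 8 wells/compound; covered, vented; 25° C., 14:10 L:D, 5–7 d; % mortality per well, averaged.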

[3] = tested on: Yellow Fever Mosquito (Aedes aegypti, AEDSAE); conditions: Yellow Fever Mosquito; for YFM: rating class; for YFM rating: Table ABC / ABC-DP rating
Outline: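 Larvae ~1 day old, in liver powder/water; compound from 4000 ppm DMSO stock diluted with water/acetone (90:10); 6 reps; lidded, RT, 3 d; mortality scored per well, rated.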

[4] = Table ABC / ABC-DP rating, read-out: CL rating
[5] = Table ABC / ABC-DP rating, read-out: BAW rating

## O=C(Nc1ccc(F)c(I)c1F)c1cc(NC(=O)[C@H]2[C@H](c3ccc(F)c(C(F)(F)F)c3)C2(Cl)Cl)ccc1Cl [F1758, 2-Chloro-5-((1R,3R)-2,2-dichloro-3-(4-fluoro-3-(trifluoromethyl)phenyl)cyclopropane-1-carboxamido)-N-(2,4-difluoro-3-iodophenyl)benzamide]
[1]; rating class, read-out: CL
  pest or weed control at 50 µg/cm2: 50 to 100%
[2]; rating class, read-out: BAW
  pest or weed control at 50 µg/cm2: 50 to 100%
[3]
  YFM: A (80–100)

## CCCC(OCC)C(=O)Nc1c(F)ccc(NC(=O)c2cc(NC(=O)[C@H]3[C@H](c4ccc(F)c(C(F)(F)F)c4)C3(Cl)Cl)ccc2Cl)c1F (stereo partly drawn) [F1759, 2-Chloro-5-((1R,3R)-2,2-dichloro-3-(4-fluoro-3-(trifluoromethyl)phenyl)cyclopropane-1-carboxamido)-N-(3-(2-ethoxypentanamido)-2,4-difluorophenyl)benzamide]
[1]; rating class, read-out: CL
  pest or weed control at 50 µg/cm2: 50 to 100%
[2]; rating class, read-out: BAW
  pest or weed control at 50 µg/cm2: 50 to 100%
[3]
  YFM: A (80–100)

## CC(CC(=O)Nc1c(F)ccc(NC(=O)c2cc(NC(=O)[C@H]3[C@H](c4ccc(F)c(C(F)(F)F)c4)C3(Cl)Cl)ccc2Cl)c1F)C(F)(F)F (stereo partly drawn) [F1760, 2-Chloro-5-((1R,3R)-2,2-dichloro-3-(4-fluoro-3-(trifluoromethyl)phenyl)cyclopropane-1-carboxamido)-N-(2,4-difluoro-3-(4,4,4-trifluoro-3-methylbutanamido)phenyl)benzamide]
[1]; rating class, read-out: CL
  pest or weed control at 50 µg/cm2: 50 to 100%
[2]; rating class, read-out: BAW
  pest or weed control at 50 µg/cm2: 50 to 100%
[3]
  YFM: A (80–100)

## CCN(C(=O)OC(C)(C)C)c1c(F)ccc(NC(=O)c2cc(NC(=O)[C@H]3[C@H](c4ccc(F)c(C(F)(F)F)c4)C3(Cl)Cl)ccc2Cl)c1F [F1761, tert-Butyl (3-(2-chloro-5-((1R,3R)-2,2-dichloro-3-(4-fluoro-3-(trifluoromethyl)phenyl)cyclopropane-1-carboxamido)benzamido)-2,6-difluorophenyl)(ethyl)carbamate]
[1]; rating class, read-out: CL
  pest or weed control at 50 µg/cm2: 50 to 100%
[2]; rating class, read-out: BAW
  pest or weed control at 50 µg/cm2: 50 to 100%
[3]
  YFM: A (80–100)

## C#CCC(=O)N(CC)c1c(F)ccc(NC(=O)c2cc(NC(=O)[C@H]3[C@H](c4ccc(F)c(C(F)(F)F)c4)C3(Cl)Cl)ccc2Cl)c1F [F1763]
[1]; rating class, read-out: CL
  pest or weed control at 50 µg/cm2: 50 to 100%
[2]; rating class, read-out: BAW
  pest or weed control at 50 µg/cm2: 50 to 100%
[3]
  YFM: A (80–100)

## C#CC(C)C(=O)N(CC)c1c(F)ccc(NC(=O)c2cc(NC(=O)[C@H]3[C@H](c4ccc(F)c(C(F)(F)F)c4)C3(Cl)Cl)ccc2Cl)c1F (stereo partly drawn) [F1764]
[1]; rating class, read-out: CL
  pest or weed control at 50 µg/cm2: 50 to 100%
[2]; rating class, read-out: BAW
  pest or weed control at 50 µg/cm2: 50 to 100%
[3]
  YFM: A (80–100)

## O=C(COC(F)(F)F)Nc1c(F)ccc(NC(=O)c2cc(NC(=O)[C@H]3[C@H](c4ccc(Cl)c(Cl)c4)C3(Cl)Cl)ccc2Cl)c1F [F1766, 2-Chloro-5-((1R,3R)-2,2-dichloro-3-(3,4-dichlorophenyl)cyclopropane-1-carboxamido)-N-(2,4-difluoro-3-(2-(trifluoromethoxy)acetamido)phenyl)benzamide]
[1]; rating class, read-out: CL
  pest or weed control at 50 µg/cm2: 50 to 100%
[2]; rating class, read-out: BAW
  pest or weed control at 50 µg/cm2: 50 to 100%
[3]
  YFM: A (80–100)

## CC(OC(F)(F)F)C(=O)Nc1c(F)ccc(NC(=O)c2cc(NC(=O)[C@H]3[C@H](c4ccc(Cl)c(Cl)c4)C3(Cl)Cl)ccc2Cl)c1F (stereo partly drawn) [F1767, 2-Chloro-5-((1R,3R)-2,2-dichloro-3-(3,4-dichlorophenyl)cyclopropane-1-carboxamido)-N-(2,4-difluoro-3-(2-(trifluoromethoxy)propanamido)phenyl)benzamide]
[1]; [4]
  pest or weed control at 50 µg/cm2: 50 to 100%
[2]; [5]
  pest or weed control at 50 µg/cm2: 50 to 100%
[3]
  YFM rating: A (80–100)

## O=C(COC(F)(F)F)Nc1c(F)ccc(NC(=O)c2cc(NC(=O)[C@H]3[C@H](c4ccc(F)c(Cl)c4)C3(Cl)Cl)ccc2Cl)c1F [F1768, 2-Chloro-5-((1R,3R)-2,2-dichloro-3-(3-chloro-4-fluorophenyl)cyclopropane-1-carboxamido)-N-(2,4-difluoro-3-(2-(trifluoromethoxy)acetamido)phenyl)benzamide]
[1]; [4]
  pest or weed control at 50 µg/cm2: 50 to 100%
[2]; [5]
  pest or weed control at 50 µg/cm2: 50 to 100%
[3]
  YFM rating: A (80–100)

## CC(OC(F)(F)F)C(=O)Nc1c(F)ccc(NC(=O)c2cc(NC(=O)[C@H]3[C@H](c4ccc(F)c(Cl)c4)C3(Cl)Cl)ccc2Cl)c1F (stereo partly drawn) [F1769, 2-Chloro-5-((1R,3R)-2,2-dichloro-3-(3-chloro-4-fluorophenyl)cyclopropane-1-carboxamido)-N-(2,4-difluoro-3-(2-(trifluoromethoxy)propanamido)phenyl)benzamide]
[1]; [4]
  pest or weed control at 50 µg/cm2: 50 to 100%
[2]; [5]
  pest or weed control at 50 µg/cm2: 50 to 100%
[3]
  YFM rating: A (80–100)

## CC(OC(F)(F)F)C(=O)Nc1c(F)ccc(NC(=O)c2cc(NC(=O)[C@H]3[C@H](c4ccc(F)c(C(F)(F)F)c4)C3(Cl)Cl)ccc2Cl)c1F (stereo partly drawn) [F1771, 2-Chloro-5-((1R,3R)-2,2-dichloro-3-(4-fluoro-3-(trifluoromethyl)phenyl)cyclopropane-1-carboxamido)-N-(2,4-difluoro-3-(2-(trifluoromethoxy)propanamido)phenyl)benzamide]
[1]; [4]
  pest or weed control at 50 µg/cm2: 50 to 100%
[2]; [5]
  pest or weed control at 50 µg/cm2: 50 to 100%
[3]
  YFM rating: A (80–100)

## O=C(COC(F)(F)F)Nc1c(F)ccc(NC(=O)c2cc(NC(=O)[C@H]3[C@H](c4cccc(C(F)(F)F)c4)C3(Cl)Cl)ccc2Cl)c1F [F1774, 2-Chloro-5-((1R,3R)-2,2-dichloro-3-(3-(trifluoromethyl)phenyl)cyclopropane-1-carboxamido)-N-(2,4-difluoro-3-(2-(trifluoromethoxy)acetamido)phenyl)benzamide]
[1]; [4]
  pest or weed control at 50 µg/cm2: 50 to 100%
[2]; [5]
  pest or weed control at 50 µg/cm2: 50 to 100%
[3]
  YFM rating: A (80–100)

## CC(OC(F)(F)F)C(=O)Nc1c(F)ccc(NC(=O)c2cc(NC(=O)[C@H]3[C@H](c4cccc(C(F)(F)F)c4)C3(Cl)Cl)ccc2Cl)c1F (stereo partly drawn) [F1775, 2-Chloro-5-((1R,3R)-2,2-dichloro-3-(3-(trifluoromethyl)phenyl)cyclopropane-1-carboxamido)-N-(2,4-difluoro-3-(2-(trifluoromethoxy)propanamido)phenyl)benzamide]
[1]; [4]
  pest or weed control at 50 µg/cm2: 50 to 100%
[2]; [5]
  pest or weed control at 50 µg/cm2: 50 to 100%
[3]
  YFM rating: A (80–100)

## CC(C)(C)OC(=O)N(C(=O)OC(C)(C)C)c1c(F)ccc(NC(=O)c2cc(NC(=O)[C@H]3[C@H](c4ccc(F)c(Br)c4)C3(Cl)Cl)ccc2Cl)c1F [F1776, tert-Butyl N-[3-[[5-[[(1R,3R)-3-(3-bromo-4-fluoro-phenyl)-2,2-dichloro-cyclopropanecarbonyl]amino]-2-chloro-benzoyl]amino]-2,6-difluoro-phenyl]-N-tert-butoxycarbonyl-carbamate]
[1]; [4]
  pest or weed control at 50 µg/cm2: 50 to 100%
[2]; [5]
  pest or weed control at 50 µg/cm2: 50 to 100%
[3]
  YFM rating: A (80–100)

## O=C(COC(F)(F)F)Nc1c(F)ccc(NC(=O)c2cc(NC(=O)[C@H]3[C@H](c4ccc(F)c(Br)c4)C3(Cl)Cl)ccc2Cl)c1F [F1780, 5-((1R,3R)-3-(3-Bromo-4-fluorophenyl)-2,2-dichlorocyclopropane-1-carboxamido)-2-chloro-N-(2,4-difluoro-3-(2-(trifluoromethoxy)acetamido)phenyl)benzamide]
[1]; [4]
  pest or weed control at 50 µg/cm2: 50 to 100%
[2]; [5]
  pest or weed control at 50 µg/cm2: 50 to 100%
[3]
  YFM rating: A (80–100)

## CC(OC(F)(F)F)C(=O)Nc1c(F)ccc(NC(=O)c2cc(NC(=O)[C@H]3[C@H](c4ccc(F)c(Br)c4)C3(Cl)Cl)ccc2Cl)c1F (stereo partly drawn) [F1781, 5-((1R,3R)-3-(3-Bromo-4-fluorophenyl)-2,2-dichlorocyclopropane-1-carboxamido)-2-chloro-N-(2,4-difluoro-3-(2-(trifluoromethoxy)propanamido)phenyl)benzamide]
[1]; [4]
  pest or weed control at 50 µg/cm2: 50 to 100%
[2]; [5]
  pest or weed control at 50 µg/cm2: 50 to 100%
[3]
  YFM rating: A (80–100)

## O=C(Nc1ccc(F)c(NC(=O)C2(F)OC(F)(F)C(F)(F)C2(F)F)c1F)c1cc(NC(=O)[C@H]2[C@H](c3ccc(F)c(C(F)(F)F)c3)C2(Cl)Cl)ccc1Cl (stereo partly drawn) [F1782, N-(3-(2-Chloro-5-((1R,3R)-2,2-dichloro-3-(4-fluoro-3-(trifluoromethyl)phenyl)cyclopropane-1-carboxamido)benzamido)-2,6-difluorophenyl)-2,3,3,4,4,5,5-heptafluorotetrahydrofuran-2-carboxamide]
[1]; [4]
  pest or weed control at 50 µg/cm2: 50 to 100%
[2]; [5]
  pest or weed control at 50 µg/cm2: 50 to 100%
[3]
  YFM rating: A (80–100)

## CCN(C(=O)COC(F)(F)F)c1c(F)ccc(NC(=O)c2cc(NC(=O)[C@H]3[C@H](c4ccc(F)c(C(F)(F)F)c4)C3(Cl)Cl)ccc2Cl)c1F [F1789, 2-Chloro-5-((1R,3R)-2,2-dichloro-3-(4-fluoro-3-(trifluoromethyl)phenyl)cyclopropane-1-carboxamido)-N-(3-(N-ethyl-2-(trifluoromethoxy)acetamido)-2,4-difluorophenyl)benzamide]
[1]; [4]
  pest or weed control at 50 µg/cm2: 50 to 100%
[2]; [5]
  pest or weed control at 50 µg/cm2: 50 to 100%
[3]
  YFM rating: A (80–100)

## O=C(COC(F)F)Nc1c(F)ccc(NC(=O)c2cc(NC(=O)[C@H]3[C@H](c4ccc(F)c(C(F)(F)F)c4)C3(Cl)Cl)ccc2Cl)c1F [F1790, 2-Chloro-5-((1R,3R)-2,2-dichloro-3-(4-fluoro-3-(trifluoromethyl)phenyl)cyclopropane-1-carboxamido)-N-(3-(2-(difluoromethoxy)acetamido)-2,4-difluorophenyl)benzamide]
[1]; [4]
  pest or weed control at 50 µg/cm2: 50 to 100%
[2]; [5]
  pest or weed control at 50 µg/cm2: 50 to 100%
[3]
  YFM rating: A (80–100)
